What was measured:
Full length Human HDAC1 = biological target: T1, Full length Human HDAC1 (Homo sapiens, UniProt Q13547); assay: HDAC1 enzymatic assay (deacetylation of FAM-labeled peptide substrate, microfluidic electrophoresis); format: biochemical; conditions: 1 uM substrate peptide
T1 construct: Full length Human HDAC1 with; His (C); FLAG (C); host or cells: baculovirus expression system
Method: (§1) HDAC2 and HDAC1 Enzymatic Assay (HDAC2 and HDAC1 IC50 Data)
(§2) The following describes an assay protocol for measuring the deacetylation of a peptide substrate by HDAC2 or HDAC1.
(§3) HDAC protein composition and respective substrate peptides are summarized below.
(§4) HDAC reactions are assembled in 384 well plates (Greiner) in a total volume of 20 µL as following:
(§5) HDAC proteins are pre-diluted in the assay buffer comprising: 100 mM HEPES, pH 7.5, 0.1% BSA, 0.01% Triton X-100, 25 mM KCl and dispensed into 384 well plate (10 uL per well).
(§6) Test compounds are serially pre-diluted in DMSO and added to the protein samples by acoustic dispensing (Labcyte Echo). Concentration of DMSO is equalized to 1% in all samples.
(§7) Control samples (0%-inhibition in the absence of inhibitor, DMSO only) and 100%-inhibition (in the absence of enzyme) are assembled in replicates of four and used to calculate the %-inhibition in the presence of compounds.
(§8) At this step compounds can be pre-incubated with enzyme if desired.
(§9) The reactions are initiated by addition of 10 uL of the FAM-labeled substrate peptide pre-diluted in the same assay buffer. Final concentration of substrate peptide is 1 uM (HDAC1-2). The reactions are allowed to proceed at room temperature. Following incubation, the reactions are quenched by addition of 50 µL of termination buffer (100 mM HEPES, pH7.5, 0.01% Triton X-100, 0.1% SDS). Terminated plates are analyzed on a microfluidic electrophoresis instrument (Caliper LabChip® 3000, Caliper Life Sciences/Perkin Elmer) which enables electrophoretic separation of de-acetylated product from acetylated substrate. A change in the relative intensity of the peptide substrate and product is the parameter measured. Activity in each test sample is determined as the product to sum ratio (PSR): P/(S+P), where P is the peak height of the product, and S is the peak height of the substrate. Percent inhibition (Pinh) is determined using the following equation: Pinh=(PSR0% inh−PSRcompound)/(PSR0% inh−PSR100% inh)*100, in which: PSRcompound is the product/sum ratio in the presence of compound, PSR0% inh is the product/sum ratio in the absence of compound and the PSR100% inh is the product/sum ratio in the absence of the enzyme. To determine IC50 of compounds (50%-inhibition) the %-inh data (Pinh versus compound concentration) are fit by a 4 parameter sigmoid dose-response model using XLfit software (IDBS).
(§10) In the table, “A” indicates a IC50 value of less than 0.5 “B” a IC50 value from 0.5 μM to 1.0 μM; “C” a IC50 value of greater than 1.0 μM and less than or equal to 2.0 μM; and “D” indicates an IC50 value of greater than 2.0 NT=Not Tested.

Full length Human HDAC2 = biological target: T2, Full length Human HDAC2 (Homo sapiens, UniProt Q92769); assay: HDAC2 enzymatic assay (deacetylation of FAM-labeled peptide substrate, microfluidic electrophoresis); format: biochemical; conditions: 1 uM substrate peptide
T2 construct: Full length Human HDAC2 with; FLAG (C); host or cells: baculovirus expression system
T2 sequence (Q92769 whole entry): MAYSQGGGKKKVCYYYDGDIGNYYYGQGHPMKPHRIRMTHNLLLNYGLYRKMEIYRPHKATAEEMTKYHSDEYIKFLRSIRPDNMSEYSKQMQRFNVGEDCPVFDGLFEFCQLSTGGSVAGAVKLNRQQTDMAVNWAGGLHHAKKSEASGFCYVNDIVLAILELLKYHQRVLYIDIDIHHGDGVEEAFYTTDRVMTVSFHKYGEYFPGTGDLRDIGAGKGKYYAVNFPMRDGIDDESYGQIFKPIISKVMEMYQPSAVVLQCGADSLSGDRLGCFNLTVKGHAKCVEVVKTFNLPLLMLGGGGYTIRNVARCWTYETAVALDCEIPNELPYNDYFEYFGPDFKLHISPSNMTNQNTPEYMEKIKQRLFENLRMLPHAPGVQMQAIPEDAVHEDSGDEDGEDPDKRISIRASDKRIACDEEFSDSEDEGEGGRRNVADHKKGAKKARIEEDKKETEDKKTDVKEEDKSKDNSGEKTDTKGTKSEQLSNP
Method: as §1, §2, §3, §4, §5, §6, §7, §8, §9, §10

HDAC2 = biological target: T3, HDAC2 (Homo sapiens, UniProt Q92769); assay: HDAC2 enzymatic inhibition assay in SH-SY5Y cell lysate with an exogenous substrate (HDAC-Glo 2); format: cell-based; conditions: for IC50: SH-SY5Y cells
T3 construct: host or cells: SH-SY5Y cells
T3 sequence (Q92769 whole entry): as above
Method: HDAC2 Enzymatic Inhibition Assay in SH-SY5Y Cell Lysate with an Exogenous Substrate
SH-SY5Y cells (Sigma) were cultured in Eagle's Modified Essential Medium supplemented with 10% fetal bovine serum and pen/strep. Twenty-four hours prior to compound dosing 20 uL of cells were plated in white 384 well plates at a density of 1,500 cells/well. Compounds were serially diluted in neat DMSO and then diluted 1:100 v/v into media without FBS and mixed. Media was removed from the plated cells and the diluted compounds in serum free media (1% v/v final DMSO) were added and incubated at 37.0 for five hours. Ten uL of HDAC-Glo 2 reagent with 0.1% Triton X-100 was then added, the plate was mixed and allowed to develop at room temperature for 100 minutes. Plates were then read with a Spectramax LMax luminometer employing a 0.4 s integration time. Dose response curves were constructed with normalized data where CI-994 at 100 uM was defined as 100% inhibition and DMSO alone as 0% inhibition.
In the table, “A” indicates a IC50 value of less than 0.5 μM; “B” a IC50 value from 0.5 μM to 1.0 μM; “C” a IC50 value of greater than 1.0 μM and less than or equal to 2.0 μM; and “D” indicates an IC50 value of greater than 2.0 μM. NT=Not Tested.

[1] = HDAC-Glo 2, numeric values, Table 4
[2] = five hours incubation, HDAC-Glo 2 reagent, class symbols
[3] = HDAC2 SH-SY5Y cell lysate assay

T1 sequence (Q13547 whole entry): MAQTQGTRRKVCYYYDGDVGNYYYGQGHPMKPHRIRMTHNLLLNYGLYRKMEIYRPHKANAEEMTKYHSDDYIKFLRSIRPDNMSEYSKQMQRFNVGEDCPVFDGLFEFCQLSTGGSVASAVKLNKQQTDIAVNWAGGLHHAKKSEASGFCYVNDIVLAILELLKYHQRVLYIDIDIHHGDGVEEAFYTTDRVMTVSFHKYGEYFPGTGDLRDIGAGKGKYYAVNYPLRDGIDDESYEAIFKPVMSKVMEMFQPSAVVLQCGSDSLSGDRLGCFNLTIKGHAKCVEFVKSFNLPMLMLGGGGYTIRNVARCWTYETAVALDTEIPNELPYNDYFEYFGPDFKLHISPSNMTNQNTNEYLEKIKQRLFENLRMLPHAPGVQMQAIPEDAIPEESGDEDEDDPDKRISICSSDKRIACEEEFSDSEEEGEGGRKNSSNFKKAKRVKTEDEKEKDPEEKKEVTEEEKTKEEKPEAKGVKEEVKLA

SMILES	IC50 (Full length Human HDAC1) [nM]	IC50 (Full length Human HDAC2) [nM]	IC50 (HDAC2; [1]) [nM]	IC50 (HDAC2; [2]) [nM]	potency compared with Comparators A-C (HDAC2; [3])	fold more potent than Comparator A (HDAC2; [3]) [fold]
Nc1ccc(-c2ccc(F)cc2)nc1NC(=O)N1CCC(c2ncccn2)C1 (centres unmarked) [Compound 19]	< 500	< 500	421	< 500	greater potency	–
Nc1ccc(-c2ccc(F)cc2F)nc1NC(=O)N1CCC(c2ncc(F)cn2)C1 (single isomer, unassigned) [Compound 14E1]	< 500	500 to 1000	–	500 to 1000	–	–
Nc1ccc(-c2ccc(F)cc2)nc1NC(=O)N1CCC(c2ncccn2)C1 (single isomer, unassigned) [Compound 19E2]	< 500	< 500	–	500 to 1000	–	–
Cc1cnc(C2CCN(C(=O)Nc3nc(-c4ccc(F)cc4F)ccc3N)C2)cn1 (centres unmarked) [Compound 18]	500 to 1000	500 to 1000	550	500 to 1000	–	–
Nc1ccc(-c2ccc(F)cc2)nc1NC(=O)N1CCC(c2ncc(F)cn2)C1 (single isomer, unassigned) [Compound 20E2]	< 500	< 500	–	500 to 1000	–	–
Nc1ccc(-c2ccc(F)cc2F)nc1NC(=O)N1CCC(Cc2ncccn2)C1 (centres unmarked) [Compound 24]	1000 to 2000	1000 to 2000	1420	1000 to 2000	–	–
Nc1ccc(-c2ccc(F)cc2F)nc1NC(=O)N1CCC(c2ccccc2)C1 (centres unmarked) [Compound 4]	500 to 1000	1000 to 2000	–	> 2000	–	–
Nc1ccc(-c2ccc(F)cc2F)nc1NC(=O)N1CCC(c2ccccn2)C1 (centres unmarked) [Compound 1]	500 to 1000	1000 to 2000	–	> 2000	–	–
Nc1ccc(-c2ccc(F)cc2F)nc1NC(=O)N1CCC(c2cccnc2)C1 (centres unmarked) [Compound 2]	1000 to 2000	> 2000	–	> 2000	–	–
Nc1ccc(-c2ccc(F)cc2)nc1NC(=O)N1CCC(c2ncc(F)cn2)C1 (single isomer, unassigned) [Compound 20E1]	500 to 1000	500 to 1000	–	1000 to 2000	–	–
Nc1ccc(-c2ccc(F)cc2F)nc1NC(=O)N1CCC(c2ncc(F)cn2)C1 (single isomer, unassigned) [Compound 14E2]	500 to 1000	> 2000	–	> 2000	–	–
Nc1ccc(-c2ccc(F)cc2)nc1NC(=O)N1CCC(c2ncc(F)cn2)C1 (centres unmarked) [Compound 20]	< 500	500 to 1000	1130	1000 to 2000	greater potency	> 2
Nc1ccc(-c2ccc(F)cc2F)nc1NC(=O)N1CCC(F)(c2ncccn2)C1 (single isomer, unassigned) [Compound 29E1]	< 500	< 500	–	500 to 1000	–	–

Results, then the compound that gave them:

IC50 (Full length Human HDAC1) [nM]	IC50 (Full length Human HDAC2) [nM]	IC50 (HDAC2; [1]) [nM]	IC50 (HDAC2; [2]) [nM]	potency compared with Comparators A-C (HDAC2; [3])	fold more potent than Comparator A (HDAC2; [3]) [fold]	SMILES
< 500	500 to 1000	768	500 to 1000	–	–	Nc1ccc(-c2ccc(F)cc2F)nc1NC(=O)N1CCC(F)(c2ncccn2)C1 (centres unmarked) [Compound 29]
1000	1000 to 2000	–	> 2000	–	–	Cc1ccnc(C2CCN(C(=O)Nc3nc(-c4ccc(F)cc4)ccc3N)C2)n1 (single isomer, unassigned) [Compound 50]
< 500	500 to 1000	–	500 to 1000	–	–	Cn1ccnc1CC1CCN(C(=O)Nc2nc(-c3ccc(F)cc3F)ccc2N)C1 (centres unmarked) [Compound 36]
500 to 1000	1000 to 2000	–	1000 to 2000	–	–	Nc1ccc(-c2ccccc2F)nc1NC(=O)N1CCC(c2ncccn2)C1 (centres unmarked) [Compound 48]
< 500	< 500	–	500 to 1000	–	–	Nc1ccc(-c2ccc(F)cc2)nc1NC(=O)N1CCC(F)(c2ncccn2)C1 (single isomer, unassigned) [Compound 55]
500 to 1000	500 to 1000	–	1000 to 2000	–	–	Nc1ccc(-c2ccc(F)cc2)nc1NC(=O)N1CCC(F)(c2ncccn2)C1 (single isomer, unassigned) [Compound 54]
< 500	< 500	–	500 to 1000	–	–	Nc1ccc(-c2ccc(F)s2)nc1NC(=O)N1CCC(c2ncccn2)C1 (single isomer, unassigned) [Compound 40]
< 500	1000 to 2000	–	1000 to 2000	–	–	Nc1ccc(-c2cccs2)nc1NC(=O)N1CCC(c2ncc(F)cn2)C1 (centres unmarked) [Compound 49]
< 500	500 to 1000	–	500 to 1000	–	–	Nc1ccc(-c2ccc(F)s2)nc1NC(=O)N1CCC(c2ncc(F)cn2)C1 (single isomer, unassigned) [Compound 44]
< 500	500 to 1000	–	500 to 1000	–	–	Nc1ccc(-c2cccs2)nc1NC(=O)N1CCC(c2ncccn2)C1 (centres unmarked) [Compound 41]

Reference: patent publication US20210276978A1, “INHIBITORS OF HISTONE DEACETYLASE” (Alkermes, Inc., priority 2018, published 2021)
